Experimental data from ChEMBL document CHEMBL4334501, “A drug repurposing screening reveals a novel epigenetic activity of hydroxychloroquine” (Eur J Med Chem, 2019).
Calls of active or inactive are those of the source. The calls are words filed in the database; no cut-off is given here.

Key:
[1] = biological target: Polycomb protein EED (Homo sapiens) (UniProt O75530); test: Inhibition of EED subunit of PRC2 complex in human MM1S cells assessed as reduction in H3K27me3 expression after 24 hrs by Western blot analysis; type: cell-based
Polycomb protein EED (Homo sapiens), sequence (O75530 2-441 limits assumed): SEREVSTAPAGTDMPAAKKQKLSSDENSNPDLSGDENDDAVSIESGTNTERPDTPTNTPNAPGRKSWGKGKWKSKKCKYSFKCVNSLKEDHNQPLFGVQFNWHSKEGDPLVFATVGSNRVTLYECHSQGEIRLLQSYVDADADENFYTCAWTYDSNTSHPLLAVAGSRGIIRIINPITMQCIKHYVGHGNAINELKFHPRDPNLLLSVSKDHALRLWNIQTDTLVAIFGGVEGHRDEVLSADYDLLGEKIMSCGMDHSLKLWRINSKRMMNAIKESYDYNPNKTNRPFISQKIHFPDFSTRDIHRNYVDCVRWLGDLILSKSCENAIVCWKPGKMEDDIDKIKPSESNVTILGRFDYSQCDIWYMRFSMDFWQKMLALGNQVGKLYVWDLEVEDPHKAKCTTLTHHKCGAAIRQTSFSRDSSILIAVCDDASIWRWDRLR

[2] = biological target: Polycomb protein EED (Homo sapiens) (UniProt O75530); test: Inhibition of HA-tagged human EED subunit of PRC2 complex expressed in human MM1S cells assessed as reduction in transfected EED cDNA vector-induced H3K27me3 overexpression at 10 uM after 24 hrs by Western blot analysis; type: cell-based

inhibition [1]: Dose-dependent effect | inhibition [2]: Active
SMILES: CCN(CCO)CCCC(C)Nc1ccnc2cc(Cl)ccc12 (configuration not stated)
